Test results taken from the NIST ThermoML archive (doi:10.1016/j.jct.2009.12.004).
Values joined by “and” are separate entries in the source; they are usually repeats but may differ in a detail not shown here. Equal entries are not always repeated. ± gives the expanded uncertainty stated by the source.

Key:
[1] = activity coefficient (dimensionless); of the first substance listed, at infinite dilution; xn = mol fraction of the nth substance listed; conditions: Liquid, Chromatography, x1 = 0
[2] = 298.15 K; 101.33 kPa; Liquid; Vibrating tube method

SMILES | activity coefficient ([1]; 313.15 K) | activity coefficient ([1]; 323.15 K) | activity coefficient ([1]; 333.15 K) | mass density [2] [kg/m3]
C#CCCCCCC [1-octyne] + CCCCCCCC[n+]1ccn(C)c1.F[P-](F)(F)(F)(F)F | 3.77 and 3.9 | 3.94 and 3.87 | 3.94 and 4.03 | –
C1CCCCCCC1 [cyclooctane] + CCCCCCCC[n+]1ccn(C)c1.F[P-](F)(F)(F)(F)F | 10.2 and 9.9 | 9.5 and 9.9 | 9.4 ± 0.8 | –
c1ccccc1 [benzene] + CCCCCCCC[n+]1ccn(C)c1.F[P-](F)(F)(F)(F)F | 0.96 and 0.97 | 0.99 ± 0.08 | 1 and 1.03 | –
CCCCCCCCCCC [undecane] + CCCCCCCC[n+]1ccn(C)c1.F[P-](F)(F)(F)(F)F | 42.1 and 41.3 | 40.1 and 39.6 | 36.5 and 37 | –
CCCCCCCC[n+]1ccn(C)c1.F[P-](F)(F)(F)(F)F [1-octyl-3-methylimidazolium hexafluorophosphate] | – | – | – | 1238.51 ± 10
C1CCCCC1 [cyclohexane] + CCCCCCCC[n+]1ccn(C)c1.F[P-](F)(F)(F)(F)F | 6.7 and 6.82 | 6.61 and 6.56 | 6.29 and 6.3 | –
C=CCCCCCCCC [1-decene] + CCCCCCCC[n+]1ccn(C)c1.F[P-](F)(F)(F)(F)F | 16.3 and 16.7 | 16.3 and 16.5 | 16.3 and 16.4 | –
CCCCCCCCCC [decane] + CCCCCCCC[n+]1ccn(C)c1.F[P-](F)(F)(F)(F)F | 31.8 and 31.7 | 30.8 and 30.3 | 28.2 and 29 | –
CCc1ccccc1 [ethylbenzene] + CCCCCCCC[n+]1ccn(C)c1.F[P-](F)(F)(F)(F)F | 1.95 ± 0.17 | 1.98 ± 0.17 | 1.99 and 2.02 | –
Cc1ccccc1 [toluene] + CCCCCCCC[n+]1ccn(C)c1.F[P-](F)(F)(F)(F)F | 1.31 and 1.36 | 1.37 and 1.35 | 1.37 and 1.41 | –
C1CCCC1 [cyclopentane] + CCCCCCCC[n+]1ccn(C)c1.F[P-](F)(F)(F)(F)F | 5.02 and 5.06 | 4.95 and 4.92 | 4.77 and 4.79 | –
C=CCCCCCCC [1-nonene] + CCCCCCCC[n+]1ccn(C)c1.F[P-](F)(F)(F)(F)F | 14.2 and 13.5 | 13.3 and 13.9 | 13.5 and 13.3 | –
C=CCCCCCC [oct-1-ene] + CCCCCCCC[n+]1ccn(C)c1.F[P-](F)(F)(F)(F)F | 10.8 and 10.3 | 10.2 and 10.7 | 10.4 and 10.3 | –
C1CCCCCC1 [cycloheptane] + CCCCCCCC[n+]1ccn(C)c1.F[P-](F)(F)(F)(F)F | 8.2 and 8 | 7.74 and 7.97 | 7.63 and 7.75 | –
CCCCCCCC [octane] + CCCCCCCC[n+]1ccn(C)c1.F[P-](F)(F)(F)(F)F | 18.3 and 17.6 | 17.1 and 17.9 | 17 and 16.9 | –

Results, then the compound that gave them:

activity coefficient ([1]; 313.15 K) | activity coefficient ([1]; 323.15 K) | activity coefficient ([1]; 333.15 K) | mass density [2] [kg/m3] | SMILES
2.22 and 2.32 | 2.05 and 2 | 1.79 and 1.82 | – | CCO [ethanol] + CCCCCCCC[n+]1ccn(C)c1.F[P-](F)(F)(F)(F)F
1.7 and 1.72 | 1.79 and 1.75 | 1.78 and 1.84 | – | C#CCCC [1-pentyne] + CCCCCCCC[n+]1ccn(C)c1.F[P-](F)(F)(F)(F)F
2.81 and 2.93 | 2.98 and 2.87 | 2.93 and 3.04 | – | C#CCCCCC [1-heptyne] + CCCCCCCC[n+]1ccn(C)c1.F[P-](F)(F)(F)(F)F
2.24 and 2.33 | 2.38 and 2.3 | 2.34 and 2.43 | – | C#CCCCC [1-hexyne] + CCCCCCCC[n+]1ccn(C)c1.F[P-](F)(F)(F)(F)F
14.1 and 14.3 | 13.6 and 13.8 | 13.2 ± 1.1 | – | CCCCCCC [heptane] + CCCCCCCC[n+]1ccn(C)c1.F[P-](F)(F)(F)(F)F
10.8 and 11 | 10.7 and 10.6 | 10.2 and 10.4 | – | CCCCCC [hexane] + CCCCCCCC[n+]1ccn(C)c1.F[P-](F)(F)(F)(F)F
1.77 and 1.85 | 1.65 and 1.61 | 1.46 and 1.5 | – | CO [methanol] + CCCCCCCC[n+]1ccn(C)c1.F[P-](F)(F)(F)(F)F
8.2 and 8.3 | 8.1 ± 0.7 | 7.8 and 8 | – | CCCCC [pentane] + CCCCCCCC[n+]1ccn(C)c1.F[P-](F)(F)(F)(F)F
8.2 ± 0.7 | 8.1 and 8.2 | 8 and 8.1 | – | C=CCCCCC [1-heptene] + CCCCCCCC[n+]1ccn(C)c1.F[P-](F)(F)(F)(F)F
6.2 and 6.5 | 6.29 and 6.15 | 6.1 and 6.15 | – | C=CCCCC [hex-1-ene] + CCCCCCCC[n+]1ccn(C)c1.F[P-](F)(F)(F)(F)F
